Earlier results in patent US5006329A, “Radioactive tagged compounds and method for the treatment of metastatic bone cancer” (priority 1989, dated 1991).

Experiments:
bone marrow = details: after treatment of a patient; reported
metastatic bone cancer = details: over 100 patients
[1] = for high energy beta emissions: e.g.
bone cancer = details: HMDP with Samarium-153 label
malignant bone tissue = details: tumor vs normal bone

| Compound | blood profile changes (bone marrow) | degree of malignancy (metastatic bone cancer) | dose of radioactivity to bone marrow (metastatic bone cancer) | pain (metastatic bone cancer) | effectiveness in treating the cancer (metastatic bone cancer; Dr. Ralph Robinson) | high energy beta emissions [1] | safety with respect to healthy bone marrow tissue (bone cancer) | effectiveness in treating the malignancy (bone cancer; preliminary results) | half-life (radioactive) [1] | accretion rate of tumor compared with normal bone (malignant bone tissue) |
| --- | --- | --- | --- | --- | --- | --- | --- | --- | --- | --- |
| Strontium-89 | blood profile changes occur | reduced | unacceptably high | reduced | acceptable | 800 KeV |  |  |  |  |
| [153Sm] [Samarium-153] | blood profile changes occur |  |  |  |  | 600-700 KeV | indeterminate | promising | two |  |
| O=P([O-])([O-])CP(=O)(O)O.[Na+].[Na+] [MDP, disodium methylene-diphosphonate] |  |  |  |  |  |  |  |  |  | substantially higher than normal bone |
